Source: US20140024527A1, “HERBICIDAL PYRAZINONES” (E I DU DE NEMOURS AND COMPANY, priority 2011, published 2014)

What was measured:
Type in all cases: in vivo
[1] = tested on: barnyardgrass (Echinochloa crus-galli); assay: Test A postemergence; conditions: 0 to 100 scale, 0 no effect, 100 complete control, approx. 10 days
From the text: (§1) Seeds of barnyardgrass (Echinochloa crus-galli), large crabgrass (Digitaria sanguinalis), giant foxtail (Setaria faberii), morningglory (Ipomoea spp.), pigweed (Amaranthus retroflexus), velvetleaf (Abutilon theophrasti), wheat (Triticum aestivum) and corn (Zea mays) were planted into a blend of loam soil and sand and treated preemergence with a directed soil spray using test chemicals formulated in a non-phytotoxic solvent mixture which included a surfactant. At the same time these species were also treated with postemergence applications of test compounds formulated in the same manner. Plants ranged in height from 2 to 10 cm and were in the one- to two-leaf stage for the postemergence treatments. Treated plants and untreated controls were maintained in a greenhouse for approximately 10 days, after which time all treated plants were compared to untreated controls and visually evaluated for injury. Plant response ratings, summarized in Table A, are based on a 0 to 100 scale where 0 is no effect and 100 is complete control.

corn (Zea mays) [2] = assay: Test A postemergence; conditions: 0 to 100 scale, 0 no effect, 100 complete control, approx. 10 days
From the text: as §1

[3] = tested on: giant foxtail (Setaria faberii); assay: Test A postemergence; conditions: 0 to 100 scale, 0 no effect, 100 complete control, approx. 10 days
From the text: as §1

[4] = tested on: large crabgrass (Digitaria sanguinalis); assay: Test A postemergence; conditions: 0 to 100 scale, 0 no effect, 100 complete control, approx. 10 days
From the text: as §1

[5] = tested on: morningglory (Ipomoea spp.); assay: Test A postemergence; conditions: 0 to 100 scale, 0 no effect, 100 complete control, approx. 10 days
From the text: as §1

[6] = tested on: pigweed (Amaranthus retroflexus); assay: Test A postemergence; conditions: 0 to 100 scale, 0 no effect, 100 complete control, approx. 10 days
From the text: as §1

[7] = tested on: velvetleaf (Abutilon theophrasti); assay: Test A postemergence; conditions: 0 to 100 scale, 0 no effect, 100 complete control, approx. 10 days
From the text: as §1

[8] = tested on: wheat (Triticum aestivum); assay: Test A postemergence; conditions: 0 to 100 scale, 0 no effect, 100 complete control, approx. 10 days
From the text: as §1

[9] = tested on: barnyardgrass (Echinochloa crus-galli); assay: Test A preemergence; conditions: 0 to 100 scale, 0 no effect, 100 complete control, approx. 10 days
From the text: as §1

corn (Zea mays) [10] = assay: Test A preemergence; conditions: 0 to 100 scale, 0 no effect, 100 complete control, approx. 10 days
From the text: as §1

[11] = tested on: giant foxtail (Setaria faberii); assay: Test A preemergence; conditions: 0 to 100 scale, 0 no effect, 100 complete control, approx. 10 days
From the text: as §1

[12] = tested on: large crabgrass (Digitaria sanguinalis); assay: Test A preemergence; conditions: 0 to 100 scale, 0 no effect, 100 complete control, approx. 10 days
From the text: as §1

[13] = tested on: morningglory (Ipomoea spp.); assay: Test A preemergence; conditions: 0 to 100 scale, 0 no effect, 100 complete control, approx. 10 days
From the text: as §1

[14] = tested on: pigweed (Amaranthus retroflexus); assay: Test A preemergence; conditions: 0 to 100 scale, 0 no effect, 100 complete control, approx. 10 days
From the text: as §1

[15] = tested on: velvetleaf (Abutilon theophrasti); assay: Test A preemergence; conditions: 0 to 100 scale, 0 no effect, 100 complete control, approx. 10 days
From the text: as §1

[16] = tested on: wheat (Triticum aestivum); assay: Test A preemergence; conditions: 0 to 100 scale, 0 no effect, 100 complete control, approx. 10 days
From the text: as §1

[17] = tested on: barnyardgrass (Echinochloa crus-galli); assay: Test B flooded paddy test; conditions: Flood
From the text: (§2) Plant species in the flooded paddy test consisted of rice (Oryza sativa), umbrella sedge (Cyperus difformis), ducksalad (Heteranthera limosa) and barnyardgrass (Echinochloa crus-galli) grown to the 2-leaf stage for testing. At time of treatment, test pots were flooded to 3 cm above the soil surface, treated by application of test compounds directly to the paddy water, and then maintained at that water depth for the duration of the test. Treated plants and controls were maintained in a greenhouse for 13 to 15 days, after which time all species were compared to controls and visually evaluated. Plant response ratings, summarized in Table B, are based on a scale of 0 to 100 where 0 is no effect and 100 is complete control. A dash (-) response means no test result.

[18] = tested on: ducksalad (Heteranthera limosa); assay: Test B flooded paddy test; conditions: Flood, scale 0 to 100
From the text: as §2

rice (Oryza sativa) = assay: Test B flooded paddy test; conditions: Flood, scale 0 to 100
From the text: as §2

[19] = tested on: umbrella sedge (Cyperus difformis); assay: Test B flooded paddy test; conditions: Flood, scale 0 to 100
From the text: as §2

O=C1CCCC(O)=C1C(=O)c1nc(Cl)c(-c2cccc(F)c2)n(C2CCCCC2)c1=O [Compound 2, 5-chloro-1-cyclohexyl-6-(3-fluorophenyl)-3-[(2-hydroxy-6-oxo-1-cyclohexen-1-yl)carbonyl]-2(1H)pyrazinone]
Plant response rating, Barnyardgrass ([1]; 125 g ai/ha): 0 | Plant response rating, Barnyardgrass ([1]; 500 g ai/ha): 30 | Plant response rating, Corn (corn (Zea mays) [2]; 125 g ai/ha): 0 | Plant response rating, Corn (corn (Zea mays) [2]; 500 g ai/ha): 0 | Plant response rating, Foxtail, Giant ([3]; 125 g ai/ha): 0 | Plant response rating, Foxtail, Giant ([3]; 500 g ai/ha): 20 | Plant response rating, Crabgrass, Large ([4]; 125 g ai/ha): 0 | Plant response rating, Crabgrass, Large ([4]; 500 g ai/ha): 30 | Plant response rating, Morningglory ([5]; 125 g ai/ha): 60 | Plant response rating, Morningglory ([5]; 500 g ai/ha): 90 | Plant response rating, Pigweed ([6]; 125 g ai/ha): 30 | Plant response rating, Pigweed ([6]; 500 g ai/ha): 70 | Plant response rating, Velvetleaf ([7]; 125 g ai/ha): 70 | Plant response rating, Velvetleaf ([7]; 500 g ai/ha): 100 | Plant response rating, Wheat ([8]; 125 g ai/ha): 0 | Plant response rating, Wheat ([8]; 500 g ai/ha): 0 | Plant response rating, Barnyardgrass ([9]; 125 g ai/ha): 0 | Plant response rating, Barnyardgrass ([9]; 500 g ai/ha): 40 | Plant response rating, Corn (corn (Zea mays) [10]; 125 g ai/ha): 0 | Plant response rating, Corn (corn (Zea mays) [10]; 500 g ai/ha): 0 | Plant response rating, Foxtail, Giant ([11]; 125 g ai/ha): 0 | Plant response rating, Foxtail, Giant ([11]; 500 g ai/ha): 30 | Plant response rating, Crabgrass, Large ([12]; 125 g ai/ha): 0 | Plant response rating, Crabgrass, Large ([12]; 500 g ai/ha): 50 | Plant response rating, Morningglory ([13]; 125 g ai/ha): 0 | Plant response rating, Morningglory ([13]; 500 g ai/ha): 80 | Plant response rating, Pigweed ([14]; 125 g ai/ha): 0 | Plant response rating, Pigweed ([14]; 500 g ai/ha): 80 | Plant response rating, Velvetleaf ([15]; 125 g ai/ha): 0 | Plant response rating, Velvetleaf ([15]; 500 g ai/ha): 90 | Plant response rating, Wheat ([16]; 125 g ai/ha): 0 | Plant response rating, Wheat ([16]; 500 g ai/ha): 0 | Plant response rating, Barnyardgrass ([17]; 31 g ai/ha, scale 0 to 100): 0 | Plant response rating, Barnyardgrass ([17]; 62 g ai/ha, scale 0 to 100): 0 | Plant response rating, Barnyardgrass ([17]; 125 g ai/ha, scale 0 to 100): 0 | Plant response rating, Barnyardgrass ([17]; 250 g ai/ha, scale 0 to 100 (0 no effect, 100 complete control)): 0 | Plant response rating, Ducksalad ([18]; 31 g ai/ha): 0 | Plant response rating, Ducksalad ([18]; 62 g ai/ha): 0 | Plant response rating, Ducksalad ([18]; 125 g ai/ha): 60 | Plant response rating, Ducksalad ([18]; 250 g ai/ha): 80 | Plant response rating, Rice (rice (Oryza sativa); 31 g ai/ha): 0 | Plant response rating, Rice (rice (Oryza sativa); 62 g ai/ha): 0 | Plant response rating, Rice (rice (Oryza sativa); 125 g ai/ha): 0 | Plant response rating, Rice (rice (Oryza sativa); 250 g ai/ha): 0 | Plant response rating, Sedge, Umbrella ([19]; 31 g ai/ha): 0 | Plant response rating, Sedge, Umbrella ([19]; 62 g ai/ha): 0 | Plant response rating, Sedge, Umbrella ([19]; 125 g ai/ha): 20 | Plant response rating, Sedge, Umbrella ([19]; 250 g ai/ha): 60
